# Test results taken from US10059687B2, “Histone demethylase inhibitors” (CELGENE QUANTICEL RESEARCH, INC., priority 2015, dated 2018).
# Experiments:
# [1] = molecular target: JMJD2C (Homo sapiens (Human), UniProt Q9H3R0); test: In vitro enzyme inhibition assay for JMJD2C activity (TR-FRET); assay type: biochemical
# Procedure, shortened: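 Baculovirus-expressed JMJD2C (aa 2-372, 0.3 nM) was reacted for 30 min at RT with 300 nM biotin-H3K9me3 peptide and 2 μM α-ketoglutarate in HEPES pH 7.3 buffer containing Fe(II), ascorbate and TCEP. After EDTA stop, H3K9me2 product was detected by TR-FRET (Eu-anti-H3K9me2/streptavidin-APC). IC50 was fitted from the 665/615 ratio of 11-point dilutions.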
# [2] = molecular target: Jarid1B (Homo sapiens (Human), UniProt Q9UGL1); test: In vitro enzyme inhibition assay for Jarid1B activity (TR-FRET); assay type: biochemical
# Jarid1B, sequence (Q9UGL1 whole entry, species assumed): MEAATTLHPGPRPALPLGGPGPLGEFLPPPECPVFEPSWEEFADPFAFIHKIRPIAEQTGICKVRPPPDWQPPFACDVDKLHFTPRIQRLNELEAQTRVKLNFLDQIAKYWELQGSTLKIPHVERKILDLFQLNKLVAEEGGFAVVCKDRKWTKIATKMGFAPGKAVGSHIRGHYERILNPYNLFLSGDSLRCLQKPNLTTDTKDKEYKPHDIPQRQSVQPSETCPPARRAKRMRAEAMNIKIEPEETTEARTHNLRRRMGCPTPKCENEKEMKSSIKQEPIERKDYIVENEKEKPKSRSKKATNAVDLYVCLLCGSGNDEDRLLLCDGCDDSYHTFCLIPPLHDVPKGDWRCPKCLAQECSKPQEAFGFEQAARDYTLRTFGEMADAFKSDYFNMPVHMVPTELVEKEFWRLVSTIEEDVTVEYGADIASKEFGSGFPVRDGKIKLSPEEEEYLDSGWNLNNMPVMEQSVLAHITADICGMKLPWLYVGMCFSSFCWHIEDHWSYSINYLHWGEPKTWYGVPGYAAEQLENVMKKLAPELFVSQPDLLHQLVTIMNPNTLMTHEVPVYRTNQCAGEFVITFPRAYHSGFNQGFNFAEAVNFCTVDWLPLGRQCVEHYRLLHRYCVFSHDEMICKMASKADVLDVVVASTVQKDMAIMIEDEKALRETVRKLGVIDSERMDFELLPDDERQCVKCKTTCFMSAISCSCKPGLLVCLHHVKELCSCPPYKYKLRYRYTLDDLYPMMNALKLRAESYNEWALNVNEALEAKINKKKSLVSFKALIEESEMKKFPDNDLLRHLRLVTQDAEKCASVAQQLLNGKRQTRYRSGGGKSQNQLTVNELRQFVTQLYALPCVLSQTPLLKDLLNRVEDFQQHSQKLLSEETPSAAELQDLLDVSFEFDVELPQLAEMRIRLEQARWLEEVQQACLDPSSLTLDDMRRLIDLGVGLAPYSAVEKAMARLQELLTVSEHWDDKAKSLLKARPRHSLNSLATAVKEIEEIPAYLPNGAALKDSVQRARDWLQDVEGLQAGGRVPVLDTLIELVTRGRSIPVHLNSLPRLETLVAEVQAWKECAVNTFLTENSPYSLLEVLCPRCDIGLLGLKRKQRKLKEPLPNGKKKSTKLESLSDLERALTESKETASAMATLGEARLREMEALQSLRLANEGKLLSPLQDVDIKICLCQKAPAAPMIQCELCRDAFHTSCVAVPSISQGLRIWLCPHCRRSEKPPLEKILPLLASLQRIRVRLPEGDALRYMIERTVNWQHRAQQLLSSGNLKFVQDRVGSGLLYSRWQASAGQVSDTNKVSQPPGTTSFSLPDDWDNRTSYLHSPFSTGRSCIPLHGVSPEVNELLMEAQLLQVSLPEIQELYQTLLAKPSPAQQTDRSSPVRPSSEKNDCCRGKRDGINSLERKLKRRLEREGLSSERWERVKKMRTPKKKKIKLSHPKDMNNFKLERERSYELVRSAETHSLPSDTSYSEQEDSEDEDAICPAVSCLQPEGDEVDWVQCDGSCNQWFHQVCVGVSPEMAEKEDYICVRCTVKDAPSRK
# [3] = tested on: Jurkat cells; test: Jurkat (T-ALL) cell line proliferation assay (Cell-MTS Assay); assay type: cell-based; conditions: Homo sapiens, 168 hr incubation, cell gives A/B enantiomer values, read-out: Cellular IC50
# Description: The Jurkat (T-ALL) cell line proliferation assay (Cell-MTS Assay) is a colorimetric cellular assay to assess the ability of KDM small molecule inhibitors to effect the proliferation of the established human acute T cell leukemia cancer cell line Jurkat.
# This Cell-MTS assay is a 7-day plate-based colorimetric assay which quantifies the amount of newly generated NADH in the presence and absence of test compound. These NADH levels are used as a proxy for the quantification of cancer cell proliferation.
# The established cancer cell line Jurkat with a verified p53 mutation were purchased from American Type Culture Collection (ATCC) and routinely passaged according to ATCC published protocols. For routine assay these cells were seeded at a density of 10,000 cells per 96-well. 24 hr after plating, cells received an 11-point dilution of test compound with final concentration ranges from 10 μM to 0.15 nM. Cells were incubated in the presence of compound for 168 hr at 37° C., 5% CO2. At the end of this compound incubation period, 80 μl of media is removed and 20 μL of CellTiter 96® AQueous Non-Radioactive Cell Proliferation Assay solution (Promega) is added. The cells were incubated until the OD490 reached >0.6. IC50 values are calculated using the IDBS XLfit software package and include background subtracted OD490 values and normalization to DMSO controls. Cellular proliferation IC50 values are uploaded and archived using the Chem Biography Platform.
# [4] = tested on: esophageal squamous cell carcinoma KYSE-150 cells; test: Cellular IC50 in KYSE-150 cells; assay type: cell-based; conditions: Homo sapiens, one class given per A and B pair
# Description: Table 7 provides IC50 values of various compounds disclosed herein, tested in cellular human esophageal squamous cell carcinoma KYSE-150 cells: […]
# [5] = molecular target: JMJD3 (Homo sapiens, UniProt O15054); test: In vitro enzyme inhibition assay for JMJD3 activity (TR-FRET); assay type: biochemical
# Procedure, shortened: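 Baculovirus-expressed JMJD3 (AA1043-end), 5 nM, with 250 nM biotin-H3K27me3 peptide and 0.4–2 μM α-ketoglutarate in 50 mM HEPES pH 7.3, 50 μM ascorbate, 5 μM Fe(II); 30 min at RT. EDTA-stopped; H3K27me2 product detected by TR-FRET (Eu-antibody/streptavidin-APC), 665/615 ratio fitted to 11-point IC50.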
# [6] = Table 4, cell gives A/B enantiomer values
# [7] = Table 5, one class given per A and B pair
# JMJD2C, sequence (Q9H3R0 2-372): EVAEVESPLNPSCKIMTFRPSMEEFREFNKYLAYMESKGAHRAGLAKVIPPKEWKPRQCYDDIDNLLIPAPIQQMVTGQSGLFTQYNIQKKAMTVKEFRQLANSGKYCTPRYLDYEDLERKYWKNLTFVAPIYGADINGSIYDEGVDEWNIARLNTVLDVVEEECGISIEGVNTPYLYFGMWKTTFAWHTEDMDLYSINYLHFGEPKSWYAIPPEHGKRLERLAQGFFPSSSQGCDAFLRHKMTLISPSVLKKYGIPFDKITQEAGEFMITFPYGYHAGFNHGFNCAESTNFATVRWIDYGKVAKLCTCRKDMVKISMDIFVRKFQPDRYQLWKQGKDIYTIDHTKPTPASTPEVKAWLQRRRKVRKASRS
"IC50 [1, 6]","IC50 [1, 7]","IC50 [2, 6]","IC50 [2, 7]",IC50 [3],IC50 [4],"IC50 [5, 6]","IC50 [5, 7]",Compound
1000 to 10000 nM,1000 to 10000 nM,≤ 100 nM,≤ 100 nM,100 to 1000 nM,> 10000 nM,1000 to 10000 nM,1000 to 10000 nM,"Cc1cc(OCC(F)(F)F)ccc1-c1ccc2c(c1)CCN[C@@H]2CNc1cnccc1C(=O)O [Example 2A, 3-[({(1S)-6-[2-methyl-4-(2,2,2-trifluoro-ethoxy)phenyl]-1,2,3,4-tetrahydro-isoquinolyl}methyl)amino]pyridine-4-carboxylic acid]"
1000 to 10000 nM,1000 to 10000 nM,≤ 100 nM,≤ 100 nM,100 to 1000 nM,> 10000 nM,1000 to 10000 nM,1000 to 10000 nM,"Cc1cc(OCC(F)(F)F)ccc1-c1ccc2c(c1)CCN[C@H]2CNc1cnccc1C(=O)O [Example 2B, 3-[({(1R)-6-[2-methyl-4-(2,2,2-trifluoroethoxy)phenyl]-1,2,3,4-tetrahydroisoquinolyl)methyl)amino]pyridine-4-carboxylic acid]"
